Measured values as given in patent publication US20090203577A1 (EXELIXIS, INC., priority 2005, published 2009).
≈ marks a conversion by molar mass, not a printed value.

Assays:
[1] = molecular target: T1, human farnesoid X receptor (Homo sapiens, UniProt Q96RI1); test: FXR in vitro assays (farnesoid X receptor/ECREx7 co-transfection assay, TR-FRET assay), Table I; assay type: cell-based; conditions: for EC50: agonist activity, one or more of the in vitro assays, read-out: EC50; for Emax: read-out: % Efficacy
T1 construct: CMX-farnesoid X receptor (full length human farnesoid X receptor); expressed in transfected cells; host or cells: CV-1 African Green Monkey Kidney cells
T1 sequence (Q96RI1 1-472 isoform Q96RI1-2): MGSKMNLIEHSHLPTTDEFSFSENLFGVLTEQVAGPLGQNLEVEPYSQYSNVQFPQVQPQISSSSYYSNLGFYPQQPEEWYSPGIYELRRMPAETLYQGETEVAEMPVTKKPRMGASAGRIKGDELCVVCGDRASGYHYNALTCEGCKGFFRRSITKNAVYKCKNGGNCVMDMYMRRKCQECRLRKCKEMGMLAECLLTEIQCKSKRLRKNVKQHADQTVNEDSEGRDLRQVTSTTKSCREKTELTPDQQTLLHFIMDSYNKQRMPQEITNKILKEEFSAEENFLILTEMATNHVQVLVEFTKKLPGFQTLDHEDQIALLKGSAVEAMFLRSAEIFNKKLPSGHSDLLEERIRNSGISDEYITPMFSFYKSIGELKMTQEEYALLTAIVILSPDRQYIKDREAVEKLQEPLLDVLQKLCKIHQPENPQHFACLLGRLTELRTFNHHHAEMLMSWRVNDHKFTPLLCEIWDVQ
T1 sequence (P19793 1-462 partner): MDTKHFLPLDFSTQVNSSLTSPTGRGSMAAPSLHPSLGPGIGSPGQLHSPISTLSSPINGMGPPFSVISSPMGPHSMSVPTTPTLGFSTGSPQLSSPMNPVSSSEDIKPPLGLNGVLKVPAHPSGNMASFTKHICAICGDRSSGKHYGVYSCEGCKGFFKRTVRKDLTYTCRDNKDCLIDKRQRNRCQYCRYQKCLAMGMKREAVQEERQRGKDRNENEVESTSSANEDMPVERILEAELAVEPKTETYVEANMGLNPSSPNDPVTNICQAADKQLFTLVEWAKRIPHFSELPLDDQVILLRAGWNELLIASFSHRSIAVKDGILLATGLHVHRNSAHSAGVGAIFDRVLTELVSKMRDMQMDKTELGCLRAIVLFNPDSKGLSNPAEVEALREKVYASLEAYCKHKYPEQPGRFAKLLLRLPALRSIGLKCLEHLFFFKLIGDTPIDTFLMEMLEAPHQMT
Procedure, shortened: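 CV-1 monkey kidney cells transfected for an FXR/ECREx7 luciferase co-transfection reporter; luciferase read 18-20 h later in lysates. 8-point dose-response at ½-log spacing, 4 wells per point; EC50/IC50 from four-parameter Hill fit, averaged over at least 3 independent experiments.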

[2] = Kinetic solubility assay
Description: The kinetic solubility of test compounds in buffer was evaluated using a 96 well filtration plate format. A 500 μM assay solution in PBS, pH7.4 (or other assay buffer, as needed) was generated form a DMSO stock solution (up to 10 mM). Samples were transferred to a 96 Millipore MultiScreen HTS 96-well Filter plate (Cat# MSSLBPC10) mixed by shaking for 1.5 hours and processed by filtration prior to quantitation by HPLC-UV. Amiodarone and testosterone were used as reference controls.

[3] = pH 7.4, aqueous buffer, kinetic from dmso stock

Compound	EC50 [1]	Emax [1]	further results
1-methyethyl 1,1-dimethyl- 3-({4-[4-(trifluoromethyl)- 1H-pyrazol-1- yl]phenyl}carbonyl)-1,2,3,6- tetrahydroazepino[4,5- b]indole-5-carboxylate [Example 158]	–	–	% Efficacy [1]: A (key: A=>100%; B=80-100%; C=60-80%; D=40-60%; E=<40%); Kinetic Solubility μM ([2]; 500 μM assay solution in PBS, pH7.4 from DMSO stock, filtration, HPLC-UV): C (C=0.1-1.0 μM)
CC(C)OC(=O)C1=CN(C(=O)C2CCN(C)CC2)CC(C)(C)c2c1[nH]c1ccccc21 [Example 6, 1-methylethyl 1,1-dimethyl-3-[(1-methylpiperidin-4-yl)carbonyl]-1,2,3,6-tetrahydroazepino[4,5-b]indole-5-carboxylate]	1000 to 10000 nM	> 100%	solubility kinetic at 1.5 h [2, 3]: 0.1 to 1 µM (≈ 0.0424 to 0.424 µg/mL)
CC(C)OC(=O)C1=CN(C(=O)N2CCN(C)CC2)CC(C)(C)c2c1[nH]c1ccccc21 [Example 16]	100 to 1000 nM	> 100%	solubility kinetic at 1.5 h [2, 3]: 0.1 to 1 µM (≈ 0.0425 to 0.425 µg/mL)
CCC(=O)N1C=C(C(=O)OC(C)C)c2[nH]c3ccccc3c2C(C)(C)C1 [Example 19]	100 to 1000 nM	> 100%	solubility kinetic at 1.5 h [2, 3]: > 10 µM
CCCNC(=O)N1C=C(C(=O)OC(C)C)c2[nH]c3ccccc3c2C(C)(C)C1 [Example 23, 1-methylethyl 1,1-dimethyl-3-[(propylamino)carbonyl]-1,2,3,6-tetrahydroazepino[4,5-b]indole-5-carboxylate]	100 to 1000 nM	> 100%	solubility kinetic at 1.5 h [2, 3]: 1 to 10 µM (≈ 0.383 to 3.83 µg/mL)
CC(C)OC(=O)C1=CN(C(=O)c2cccc(OCCN3CCCCC3)c2)CC(C)(C)c2c1[nH]c1ccccc21 [Example 159, 1-methylethyl 1,1-dimethyl-3-({3-[(2-piperidin-1-ylethyl)oxy]phenyl}carbonyl)-1,2,3,6-tetrahydroazepino[4,5-b]indole-5-carboxylate]	–	–	solubility kinetic at 1.5 h [2, 3]: 1 to 10 µM (≈ 0.53 to 5.3 µg/mL)
CC(C)OC(=O)C1=CN(C(=O)c2cccc(CN3CCN(S(=O)(=O)c4ccc(F)cc4)CC3)c2)CC(C)(C)c2c1[nH]c1ccccc21 [Example 168, 1-methylethyl 3-{[3-({4-[(4-fluorophenyl)sulfonyl]piper-azin-1-yl}methyl)phenyl]carbonyl}-1,1-dimethyl-1,2,3,6-tetrahydroazepino[4,5-b]indole-5-carboxylate]	100 to 1000 nM	> 100%	–
CCS(=O)(=O)N1CCN(Cc2cccc(C(=O)N3C=C(C(=O)OC(C)C)c4[nH]c5ccccc5c4C(C)(C)C3)c2)CC1 [Example 172, 1-methylethyl 3-[(3-{[4-(ethylsulfonyl)piperazin-1-yl]methyl}phenyl)carbonyl]-1,1-dimethyl-1,2,3,6-tetrahydroazepino[4,5-b]indole-5-carboxylate]	100 to 1000 nM	> 100%	–
CC(C)OC(=O)C1=CN(C(=O)c2cccc(CN3CCN(C(=O)C4CC4)CC3)c2)CC(C)(C)c2c1[nH]c1ccccc21 [Example 173, 1-methylethyl 3-[(3-{[4-(cyclopropylcarbonyl)piper-azin-1-yl]methyl}phenyl)carbonyl]-1,1-dimethyl-1,2,3,6-tetrahydroazepino[4,5-b]indole-5-carboxylate]	100 to 1000 nM	> 100%	–
CC(C)OC(=O)C1=CN(C(=O)c2cccc(CN3CCN(C(=O)C(C)C)CC3)c2)CC(C)(C)c2c1[nH]c1ccccc21 [Example 174, 1-methylethyl 1,1-dimethyl-3-[(3-{[4-(2-methylpropanoyl)piperazin-1-yl]methyl}phenyl)carbonyl]-1,2,3,6-tetrahydroazepino[4,5-b]indole-5-carboxylate]	100 to 1000 nM	> 100%	–
CC(C)OC(=O)C1=CN(C(=O)c2cccc(CN3CCN(C(=O)c4ccccc4)CC3)c2)CC(C)(C)c2c1[nH]c1ccccc21 [Example 175, 1-methylethyl 1,1-dimethyl-3-[(3-{[4-(phenylcarbonyl)piperazin-1-yl]methyl}phenyl)carbonyl]-1,2,3,6-tetrahydroazepino[4,5-b]indole-5-carboxylate]	100 to 1000 nM	> 100%	–
CC(C)OC(=O)C1=CN(C(=O)c2cccc(CN3CCCCCCC3)c2)CC(C)(C)c2c1[nH]c1ccccc21 [Example 176, 1-methylethyl 3-{[3-(azocan-1-ylmethyl)phenyl]carbonyl}-1,1-dimethyl-1,2,3,6-tetrahydroazepino[4,5-b]indole-5-carboxylate]	100 to 1000 nM	> 100%	–
CC(C)OC(=O)C1=CN(C(=O)c2cccc(CN3CCNCC3)c2)CC(C)(C)c2c1[nH]c1ccccc21 [Example 178, 1-methylethyl 1,1-dimethyl-3-{[3-(piperazin-1-ylmethyl)phenyl]carbonyl}-1,2,3,6-tetrahydroazepino[4,5-b]indole-5-carboxylate]	> 10000 nM	–	–
CC(C)OC(=O)C1=CN(C(=O)c2cc(F)c(F)c(OCCN3CCOCC3)c2)CC(C)(C)c2c1[nH]c1ccccc21 [Example 179, 1-methylethyl 3-({3,4-difluoro-5-[(2-morpholin-4-ylethyl)oxy]phenyl}carbonyl)-1,1-dimethyl-1,2,3,6-tetrahydroazepino[4,5-b]indole-5-carboxylate]	10 to 100 nM	> 100%	–
CC(C)OC(=O)C1=CN(C(=O)c2cc(F)c(F)c(OCCN3CCCCC3)c2)CC(C)(C)c2c1[nH]c1ccccc21 [Example 180, 1-methylethyl 3-({3,4-difluoro-5-[(2-piperidin-1-ylethyl)oxy]phenyl}carbonyl)-1,1-dimethyl-1,2,3,6-tetrahydroazepino[4,5-b]indole-5-carboxylate]	10 to 100 nM	> 100%	–
CC(C)OC(=O)C1=CN(C(=O)c2ccc(OCCN3CCOCC3)cc2)CC(C)(C)c2c1[nH]c1ccccc21 [Example 181, 1-methylethyl 1,1-dimethyl-3-({4-[(2-morpholin-4-ylethyl)oxy]phenyl}carbonyl)-1,2,3,6-tetrahydroazepino[4,5-b]indole-5-carboxylate]	–	–	solubility kinetic at 1.5 h [2, 3]: 1 to 10 µM (≈ 0.532 to 5.32 µg/mL)
CC(C)OC(=O)C1=CN(C(=O)c2cccc(CN3CCN(C(=O)Nc4ccccc4)CC3)c2)CC(C)(C)c2c1[nH]c1ccccc21 [Example 184]	10 to 100 nM	> 100%	–
CCN(CC)CCCOc1cccc(C(=O)N2C=C(C(=O)OC(C)C)c3[nH]c4ccccc4c3C(C)(C)C2)c1 [Example 188, 1-methylethyl 3-[(3-{[3-(diethylamino)propyl]oxy}phenyl)carbonyl]-1,1-dimethyl-1,2,3,6-tetrahydroazepino[4,5-b]indole-5-carboxylate]	1000 to 10000 nM	> 100%	–
CC(COC(=O)c1ccc(F)c(F)c1)OC(=O)C1=CN(C(=O)c2ccc(F)c(F)c2)CC(C)(C)c2c1[nH]c1ccccc21 (stereo not drawn) [Example 194, 2-{[(3,4-difluorophenyl)carbonyl]oxy}-1-methylethyl 3-[(3,4-difluorophenyl)carbonyl]-1,1-dimethyl-1,2,3,6-tetrahydroazepino[4,5-b]indole-5-carboxylate]	10 to 100 nM	> 100%	–
CC1(C)CN(C(=O)c2ccc(F)c(F)c2)C=C(C(=O)OCCOCc2ccccc2)c2[nH]c3ccccc3c21 [Example 195, 2-[(phenylmethyl)oxy]ethyl 3-[(3,4-difluorophenyl)carbonyl]-1,1-dimethyl-1,2,3,6-tetrahydroazepino[4,5-b]indole-5-carboxylate]	100 to 1000 nM	> 100%	–
C[C@]12CC[C@H]3[C@@H](CCC4=CC(=O)CC[C@@]43C)[C@@H]1CC[C@@H]2O [testosterone, reference compound]	–	–	solubility kinetic [2, 3]: ~330 µM (≈ 95.2 µg/mL)
